Reference: patent publication US7144866B2, “Avermectin derivatives” (The Kitasato Institute, priority 2000, dated 2006)

Key:
[1] = test system: Caenorhabditis elegans; experiment: Antiparasitic activity against Caenorhabditis elegans in a 96 well microplate, movement graded 0 to 3, MIC; assay type: cell-based; settings: concentration required to give Indication 2 (or 3) for caenorhabditis elegans; incubated at 20° C., observed after 24 and 48 hours
Description: (§1) Methods for determining antiparasitic effects of the compounds disclosed by the present invention are explained below.
(§2) As model insects for simple determination of antiparasitic and insecticidal activities, those insects are desired which can be easily obtained and bred in laboratories, and have no pathogenicity to a human. Caenorhabditis elegans, an unparasitic eelworm widely used in experiments of genetics, was used as a typical steam worm, and artemia salina used as feed for tropical fish and named Brine shrimp, was used instead of insects. […]
(§3) Each well of a 96 well microplate was filled with the solution of the test compound (methanol as a solvent), and the solvent was removed using a vacuum pump, then 250 μl of the assay medium was added to each wells (the assay medium was prepared by dissolving 7.5 mM sodium hydrogencarbonate, 7.5 mM potassium chloride, 7.5 mM calcium chloride dihydrate and 7.5 mM magnesium sulfate heptahydrate in distilled water and adding 0.01% of lecithin to the solution), and then the microplate was shaken using a microplate mixer for 15 minutes. […] The results were compared to those obtained without addition of the test compound, and evaluated by 4 grades. […]

[2] = test system: artemia salina; experiment: Insecticidal model activity against artemia salina (Brine shrimp) larvae in a 96 well microplate, movement graded 0 to 3, MIC; assay type: cell-based; settings: concentration required to give Indication 2 (or 3) for artemia salina; incubated at 20° C., observed after 24 and 48 hours
Description: as §1, §2, §3

## CCC(C)C1O[C@]2(C=C[C@@H]1C)C[C@@H]1CC(C/C=C(\C)[C@@H](OC3C[C@H](OC)[C@@H](OC4C[C@H](OC)[C@@H](O)[C@H](C)O4)[C@H](C)O3)[C@@H](C)/C=C/C=C3\COC4[C@H](O)C(C)=CC(C(=O)O1)[C@]34O)O2 (some centres unmarked) [B1a*, avermectin B1a]
[1]
  C.E. minimum inhibitory concentration (MIC): 2 ng/mL
[2]
  A.S. minimum inhibitory concentration (MIC): 0.5 ng/mL
